Measurements from patent publication EP2826473A1, “NOVEL USE OF PATCHOULOL” (Chengdu Huasun Group Inc., Ltd., priority 2012, dated 2013).
Where a name gives a salt, the structure may show the parent alone. Read-outs that look alike come from different tables or passages of the source.

Legend:
Type in all cases: cell-based
[1] = system: Staphylococcus epidermidis MSSE; assay: in vitro bacteriostatic activity, agar dilution MIC
[2] = system: Escherichia coli E^-; assay: as above
[3] = system: Klebsiella pneumonia; assay: in vitro bacteriostatic activity, agar dilution MIC, quality control strain and summary; conditions: Klebsiella pneumoniae, ATCC700603; Klebsiella pneumonia ATCC 700603; read-out: MIC
[4] = system: Enterococcus faecium; assay: in vitro bacteriostatic activity, agar dilution MIC; conditions: Enterococcus faecium, read-out: MIC
[5] = system: Staphylococcus epidermidis ATCC 12228; assay: in vitro bacteriostatic activity, agar dilution MIC, quality control strain; conditions: Staphylococcus epidermidis, ATCC12228
[6] = system: Klebsiella pneumonia E^-; assay: in vitro bacteriostatic activity, agar dilution MIC
[7] = system: Staphylococcus epidermidis MRSE; assay: as above
[8] = system: Staphylococcus aureus MRSA; assay: as above; conditions: MRSA
[9] = system: Klebsiella pneumonia E^+; assay: as above; conditions: Klebsiella pneumoniae
[10] = system: Streptococcus pneumoniae; assay: as above
[11] = system: Staphylococcus aureus; assay: in vitro bacteriostatic activity, agar dilution MIC, quality control strains; conditions: ATCC25923; Staphylococcus aureus ATCC 25923; read-out: MIC
[12] = system: Enterococcus faecalis; assay: in vitro bacteriostatic activity, agar dilution MIC; conditions: Enterococcus faecalis, read-out: MIC
[13] = system: Escherichia coli; assay: in vitro bacteriostatic activity, agar dilution MIC, quality control strain and summary; conditions: ATCC25922; Escherichia coli ATCC 25922; read-out: MIC
[14] = system: Staphylococcus aureus MSSA; assay: in vitro bacteriostatic activity, agar dilution MIC; conditions: Staphylococcus aureus, MSSA

## C[C@H]1COc2c(N3CCN(C)CC3)c(F)cc3c(=O)c(C(=O)O)cn1c23 [levofloxacin, Levofloxacin hydrochloride]
[1]; Staphylococcus epidermidis
  MIC: 0.125 µg/mL
[1]; Staphylococcus epidermidis MSSE 12-12
  MIC: 0.125 µg/mL
[1]; Staphylococcus epidermidis MSSE 12-16
  MIC: 0.125 µg/mL
[1]; Staphylococcus epidermidis, Staphylococcus epidermidis MSSE 10-43, read-out: MIC
  MIC: 0.1 µg/mL
[1]; Staphylococcus epidermidis, Staphylococcus epidermidis MSSE 10-44, read-out: MIC
  MIC: 3.1 µg/mL
[1]; Staphylococcus epidermidis, Staphylococcus epidermidis MSSE 12-13, read-out: MIC
  MIC: 0.5 µg/mL
[1]; Staphylococcus epidermidis, Staphylococcus epidermidis MSSE 12-14, read-out: MIC
  MIC: 0.5 µg/mL
[1]; Staphylococcus epidermidis, Staphylococcus epidermidis MSSE 12-15, read-out: MIC
  MIC: 0.5 µg/mL
[1]; Staphylococcus epidermidis, Staphylococcus epidermidis MSSE 12-17, read-out: MIC
  MIC: 0.5 µg/mL
[1]; Staphylococcus epidermidis, Staphylococcus epidermidis MSSE 12-18, read-out: MIC
  MIC: 1 µg/mL
[1]; Staphylococcus epidermidis, Staphylococcus epidermidis MSSE 12-19, read-out: MIC
  MIC: 0.5 µg/mL
[1]; Staphylococcus epidermidis, Staphylococcus epidermidis MSSE 12-20, read-out: MIC
  MIC: 1 µg/mL
[2]; Escherichia coli E^- 10-12
  MIC: 0.1 µg/mL
[2]; Escherichia coli E^- 10-18
  MIC: 12.5 µg/mL
[3]
  MIC: 0.39 µg/mL
[4]; ATCC33186, Enterococcus faecium ATCC 33186
  MIC: 1 µg/mL
[4]; Enterococcus faecium 12-7
  MIC: 32 µg/mL
[4]; Enterococcus faecium 12-8
  MIC: 64 µg/mL
[4]; Enterococcus faecium 12-9
  MIC: 32 µg/mL
[4]; Enterococcus faecium 12-10
  MIC: 32 µg/mL
[4]; Enterococcus faecium 12-11
  MIC: 32 µg/mL
[4]; Enterococcus faecium 12-12
  MIC: 64 µg/mL
[4]; Enterococcus faecium 12-13
  MIC: 64 µg/mL
[4]; Enterococcus faecium 12-14
  MIC: 32 µg/mL
[4]; Enterococcus faecium 12-15
  MIC: 32 µg/mL
[4]; Enterococcus faecium 12-16
  MIC: 64 µg/mL
[5]
  MIC: 0.125 µg/mL
[6]; Klebsiella pneumonia E^- 10-18
  MIC: 0.025 µg/mL
[6]; Klebsiella pneumoniae, Klebsiella pneumonia E^- 10-16, read-out: MIC
  MIC: 0.025 µg/mL
[7]; Staphylococcus epidermidis MRSE 10-40, read-out: MIC
  MIC: 0.1 µg/mL
[7]; Staphylococcus epidermidis MRSE 10-44, read-out: MIC
  MIC: 3.1 µg/mL
[8]; Staphylococcus aureus MRSA 10-31, read-out: MIC
  MIC: 25 µg/mL
[8]; Staphylococcus aureus MRSA 10-32, read-out: MIC
  MIC: 12.5 µg/mL
[9]; Klebsiella pneumonia E^+ 10-2
  MIC: 12.5 µg/mL
[9]; Klebsiella pneumonia E^+ 10-6
  MIC: 0.0125 µg/mL
[10]; ATCC49619, Streptococcus pneumonia ATCC 49619
  MIC: 0.1 µg/mL
[10]; Streptococcus pneumonia 12-6
  MIC: 25 µg/mL
[10]; Streptococcus pneumonia 12-7
  MIC: 12.5 µg/mL
[10]; Streptococcus pneumonia 12-8
  MIC: 25 µg/mL
[10]; Streptococcus pneumonia 12-9
  MIC: 25 µg/mL
[10]; Streptococcus pneumonia 12-10
  MIC: 12.5 µg/mL
[10]; Streptococcus pneumoniae 12-1
  MIC: 12.5 µg/mL
[10]; Streptococcus pneumoniae 12-2
  MIC: 25 µg/mL
[10]; Streptococcus pneumoniae 12-3
  MIC: 25 µg/mL
[10]; Streptococcus pneumoniae 12-4
  MIC: 25 µg/mL
[10]; Streptococcus pneumoniae 12-5
  MIC: 25 µg/mL
[11]
  MIC: 0.1 µg/mL
[12]; ATCC29212, Enterococcus faecalis ATCC 29212
  MIC: 0.25 µg/mL
[12]; ATCC51299, Enterococcus faecalis (high endurance) ATCC 51299
  MIC: 0.25 µg/mL
[12]; Enterococcus faecalis 12-11
  MIC: 16 µg/mL
[12]; Enterococcus faecalis 12-12
  MIC: 32 µg/mL
[12]; Enterococcus faecalis 12-13
  MIC: 8 µg/mL
[12]; Enterococcus faecalis 12-14
  MIC: 64 µg/mL
[12]; Enterococcus faecalis 12-17
  MIC: 0.5 µg/mL
[12]; Enterococcus faecalis 12-18
  MIC: 0.5 µg/mL
[12]; Enterococcus faecalis 12-19
  MIC: 32 µg/mL
[12]; Enterococcus faecalis 12-20
  MIC: 4 µg/mL
[12]; Enterococcus faecalis 12-21
  MIC: 4 µg/mL
[12]; Enterococcus faecalis 12-22
  MIC: 8 µg/mL
[13]
  MIC: < 0.006 µg/mL
[14]; Staphylococcus aureus MSSA 10-38, read-out: MIC
  MIC: 0.1 µg/mL
[14]; Staphylococcus aureus MSSA 10-40, read-out: MIC
  MIC: 0.1 µg/mL
[14]; Staphylococcus aureus MSSA 10-41, read-out: MIC
  MIC: 0.1 µg/mL
[14]; Staphylococcus aureus MSSA 12-11
  MIC: 0.125 µg/mL
[14]; Staphylococcus aureus MSSA 12-13
  MIC: 0.125 µg/mL
[14]; Staphylococcus aureus MSSA 12-14
  MIC: 0.125 µg/mL
[14]; Staphylococcus aureus MSSA 12-15
  MIC: 0.125 µg/mL
[14]; Staphylococcus aureus MSSA 12-16, read-out: MIC
  MIC: 0.06 µg/mL
[14]; Staphylococcus aureus MSSA 12-17, read-out: MIC
  MIC: 0.06 µg/mL
[14]; Staphylococcus aureus MSSA 12-18
  MIC: 0.125 µg/mL
[14]; Staphylococcus aureus MSSA 12-19, read-out: MIC
  MIC: 0.06 µg/mL
[14]; Staphylococcus aureus MSSA 12-20
  MIC: 0.125 µg/mL
[14]; Staphylococcus aureus MSSA 12-21
  MIC: 0.125 µg/mL
